We go through 15 compounds from patent US6645965B1, “Nitrate salts of antihypertensive medicines” (priority 1998, dated 2003).

The test system of data set [1] is arterial hypertension induced by L-NAME. As to the kind of experiment: Arterial hypertension induced by L-NAME, systemic arterial pressure by caudal way. Format: in vivo, rat. Particulars: Carrier 170 ± 7. The method, then:
The inhibiting effect of Losartan nitrate on the arterial hypertension has been assayed by using two experimental models: the arterial hypertension induced by L-NAME (see the preceding example) and the muscular contraction produced by Angiotensin II. In the first experiment Wistar adult male rats (235-284 g) received for 6 weeks drinking water containing L-NAME. at a 60-70 mg/100 ml concentration, equivalent to a daily dose of about 60 mg/Kg. […] One hour after the last treatment, the systemic arterial pressure was determined by caudal way, as described by Zatz, Lab. Anim. Sci., 42, 198, 1990. […] In the second experiment the method described by Taylor (see Example 10) has been followed as described before. The prostatic part of the isolated deferent duct of rats (200-220 g) was removed and dipped in a physiologic solution at 37° C. and then contracted by transmural stimulation (95% of the maximum stimulation, 0.2 Hz).

The test system of data set [2] is muscular contraction produced by Angiotensin II (isolated ileum). As to the kind of experiment: Contraction of isolated guinea pig ileum produced by Angiotensin II. The note with it: Angiotensin II 10 mcg/ml, compound 10^−6M, Carrier = 100. The text has this:
In the second experiment (contraction produced by Angiotensin II), the method described by P. C. Wong et al., Hypertension, 13, 489-497, 1989 has been followed.

Data set [3] deals with prostatic part of the isolated deferent duct contracted by transmural stimulation. As to the kind of experiment: Vascular contraction of isolated rat deferent duct induced by electric stimulation. The note with it: compound 10^−6 M, within 5 minutes, Carrier = 100. The source says:
The inhibiting effect of Minoxidil nitrate on the arterial hypertension has been determined by using two experimental models: the arterial hypertension induced by L-NAME (see Example 10) and the vascular contraction induced by electric stimulation. In the first pharmacological experiment the rats have been treated as described in the pharmacological experiment with L-NAME of Example 11. In the second experiment the method described by Taylor (see Example 10) has been followed as described before. The prostatic part of the isolated deferent duct of rats (200-220 g) was removed and dipped in a physiologic solution at 37° C. and then contracted by transmural stimulation (95% of the maximum stimulation, 0.2 Hz).
The vasorelaxing activity is expressed as the reduction of the contractive neurogenic response, determined within 5 minutes from the. addition of the tested compound at a 10^−6 M concentration.

Data set [4] concerns ileal contraction caused by calcium chloride. As to the kind of experiment: Ileal contraction caused by calcium chloride (calcium antagonist activity). Particulars: guinea pig ileum, calcium chloride 20 mcg/ml, compound 10^−6 M; Carrier = 100. How it is done: In the latter, the experimental model adapted was that of the ileal contraction caused by calcium chloride, according to the method described by M. J. Spedding, J. Pharmacology 83, 211-220, 1984. Ileus segments taken from guinea pig (300-350 g) were maintained at 37° C. in a physiologic solution not containing calcium ions and then stimulated by calcium chloride addition (final concentration 20 mcg/ml). The calcium antagonist activity was determined as the reduction of the ileal contraction following addition of each of the test compounds at a concentration 10^−6 M.

For data set [5], the system named is bronchoconstriction induced in guinea pigs by the Capsaicin injection. As to the kind of experiment: Experimental bronchoconstriction induced by Capsaicin injection (tidal air variation, Konzett apparatus). It counts as in vivo, guinea pig. How it is done: The compounds at a dose of 10 mg/kg and the corresponding carrier have been administered to the guinea pigs (groups of 6 animals each) by intraperitoneal route for three consecutive days. The animals were prepared according to the method of Del Soldato et al. J. Pharmacol. Methods 5 279 1981. 45 minutes later 0.1 ml of a Capsaicin saline solution (1 μg/Kg) was injected to the animals intravenously. The tidal air variation before and after the Capsaicin administration was measured by a Konzett apparatus, modified as described in the above mentioned reference, connected to a polygraphic system. The effects of the compounds and of their corresponding nitrate salts on the experimental bronchoconstriction induced in guinea pigs by the Capsaicin injection are reported in Table 1.

The test system of data set [6] is isolated human cavernous artery. As to the kind of experiment: Relaxation of isolated human cavernous artery pre-contracted with adrenaline. The note with it: 10^−6 M; adrenaline 3.10^−6 M. The text has this: (§1) The relaxation effect of the cavernous artery and of the human cavernosum corpora (vasodilating effect at a peripheric level) was also studied. It was used the technique described by R. G. Hempelmann et al., European Journal of Pharmacology 276, 277-280 (1995), employing erectile tissues coming from patients submitted to surgical operation. The cavernous arteries have been isolated and cleaned up from the surrounding connective tissue. Segments of about 2 mm length were obtained and were mounted in a myograph equipment.
(§2) After having drawn an experimental curve diameter/tension, the specimens have been adjusted to a diameter corresponding to 90% of the one reached in the presence of a transluminal pressure of 100 mm Hg; after a stabilization period of about 60 minutes, contraction was effected by adrenaline 3.10^−6 M. After 15 minutes a dose corresponding to 10^−6 M of each of the tested compounds was added and the relaxation percentage was recorded.

Data set [7] deals with isolated human cavernous tissue. As to the kind of experiment: Relaxation of isolated human cavernous tissue strips precontracted with adrenaline. The note with it: 10^−6 M; adrenaline 3.10^−6 M.
Source text: as §1, §2
A second series of experiments has been carried out according to the same protocol, on the isolated strips, 3×3×5 mm, of cavernous tissue, isometrically suspended in baths for isolated organs, under a 5-10 mN tension.

Data set [8] relates to prostatic part of the deferent vessel contracted by transmural stimulation. As to the kind of experiment: Prostatic deferent vessel constriction induced by submaximum electric stimulation, rats treated with L-NAME. More on the design: species or system rat. The note with it: 10 mg/kg s.c. daily for five days, tested substance 10^−6 M, within 5 minutes, Carrier = 100. The method, then:
The compounds have been administered in physiological solution. The control group has been treated with the carrier (physiologic solution) only. The vaso-relaxing activity of Sildenafil nitrate was determined by using the experimental model of the prostatic deferent vessels constriction, induced by submaximum electric stimulation (D. A. Taylor et al., J. Pharmacol. Exp. Ther. 224, 40-45 1983), in rats treated with N^w-nitro-L-arginine methyl ester (L-NAME) as described by Ribeiro et al., Hypertension, 20, 298, 1992. […] […] One hour after the last treatment,. the animals were sacrificed and the prostatic part of the deferent vessel was removed, dipped in a physiologic solution at 37° C., and contracted by transmural stimulation (95% of the maximum stimulation, 0.2 Hz). The reduction of the neurogenic contractive response, which results within 5 minutes from the addition of the tested substance at a concentration of 10^−6 M, is taken as a measure of the vasorelaxing activity.

For data set [9], the system named is left atrium specimens stimulated by Isoprenaline. As to the kind of experiment: Inotropic-positive effect caused by Isoprenaline in guinea pig left atrium (beta-adrenolytic activity). The note with it: Isoprenaline 10 mcg/ml, compound 10^−6M, Carrier = 100. The method, then: In the latter experiment the method described by Grodzinski et al., Arch. Int. Phramacodyn., 191, 133-141, 1971 was followed. The left atrium specimens taken from guinea pigs (300-350 g) were maintained at 32° C. in a physiologic solution wherein the concentration of calcium ion was ⅓ lower and stimulated by Isoprenaline (10 mcg/ml). The beta-adrenolitic activity is expressed as the reduction of the inotropic-positive effect (increase of the cardiac muscle contraction) following addition of the compound under examination at a 10^−6M concentration.

Data set [10] is described as follows: Diuretic effect in rats (urine volume over 6 hours). It counts as in vivo, rat. Particulars: 10 mg/Kg subcutaneously, urine volume over 6 hours as percentage of carrier group. How it is done:
In the latter experiment the diuretic effect was studied according to the method described by W. L. Lipschwitz et al. J. Pharmacol. Exp. Ther., 79, 97-110, 1943. No 3 groups of 6 rats (200-220 g) each, stalled in metabolic cages received drinking distilled water (25 ml/Kg p.o.). Each group was then subcutaneously injected with Amiloride nitrate (10 mg/Kg), Amiloride (10 mg/Kg) or carrier respectively. The urine volume was collected during a period of 6 hours following drug administration, measured in ml. The diuretic effect is expressed as percentage of the collected urine volume calculated on that of the group treated with the carrier.

Another data set relates to gastric tissue. As to the kind of experiment: Gastric toxicity in rats given ethanol 50% by os (gastric lesions). Format: in vivo. The note with it: Sprague-Dawley male rats (n=10), 10 mg/Kg i.p. as free base, ethanol 50% by os 30 minutes later; Controls 50. How it is done: 5 groups of Sprague-Dawley male rats (n=10), were fasted for 24 hours. 4 groups were then respectively treated i.p. with Sildenafil, Zaprinast, and the relevant nitrate salts of said drugs. One group was not treated and was tha control group. 30 minutes later 1 ml of ethanol 50% in water was given by os to the animals.
One hour later the animals were sacrificed. The stomach was removed and the gastric tissue was macroscopically examined.
The results are reported in Table X. In the Table the gastric toxicity given as % incidence is the number of rats in a group showing gastric lesions.

The mark [11] stands for this setting: Table V, L-NAME rats, 10 mg/kg s.c. daily for five days, one hour after last treatment.
The mark [12] stands for this setting: Table VI, L-NAME rats treated as in Example 11.
The mark [13] stands for this setting: Table VIII, L-NAME rats, model of Example 11.
[14] abbreviates: guinea pigs, 10 mg/kg intraperitoneal for three consecutive days, Capsaicin 1 μg/Kg i.v., Carrier = 100.
Where [15] appears, read: Table VII, L-NAME rats, model of Example 11.

`CCCCc1nc(Cl)c(CO)n1Cc1ccc(-c2ccccc2-c2nn[nH]n2)cc1` [Losartan, reference compound]: the “Average arterial pressure (mm Hg)” value in data set [1] (setting [11]) was found to be 153 ± 5 mm Hg. The “Effect on the contraction of the smooth musculature % (n = 5)” value in data set [2] was found to be 33%.

Consider `Nc1cc(N2CCCCC2)nc(N)[n+]1[O-]` [Minoxidil, 6-(1-piperidiny-1)-2,4-pyrimidinediamine 3-oxide, reference compound], for which the “Average arterial pressure (mm Hg)” value in [1] (setting [12]) was 132 ± 6 mm Hg. Further, the “Effect on the vasoconstriction % (n = 5)” value in data set [3] was found to be 18%.

Take `COC(=O)C1=C(C)NC(C)=C(C(=O)OCCN(C)Cc2ccccc2)C1c1cccc([N+](=O)[O-])c1` (stereo not shown) [Nicardipine, 1,4-dihydro-2,6-dimethyl-4-(3-nitrophenyl)-3,5-pyridinedicarboxylic acid methyl 2[methyl-(phenylmethyl)amino]ethyl ester, reference compound]: the “Average arterial pressure (mm Hg)” value in data set [1] (setting [13]) came to 122 ± 6 mm Hg. Besides, the “Contracturing effect % (n = 5)” value in data set [4] is listed as 25%.

On to `CC(C)NCC(O)COc1cccc2ccccc12` (stereo not shown) [Propranolol, reference compound], for which, in [5] (setting [14]), the “Bronchoconstrictive effect (%)” value turned out to be 280%.

With `[NH-]c1c[n+](N2CCOCC2)no1` [SIN-1], the “Relaxing effect on the isolated human cavernous artery pre-contracted with adrenaline (n = 5) (relaxation %)” value (from here on “Relaxing effect … (n = 5) (relaxation %)”) in data set [6] is given as 36 ± 7%. In data set [7], the “Relaxing effect on the isolated human cavernous tissue precontracted with adrenaline (n = 4) (relaxation %)” value (“Relaxing effect … (n = 4) (relaxation %)” for short) is listed as 33 ± 4%.

With `CCCc1nn(C)c2c(=O)[nH]c(-c3cc(S(=O)(=O)N4CCN(C)CC4)ccc3OCC)nc12` [Sildenafil], in data set [6], the “Relaxing effect … (n = 5) (relaxation %)” value was 25 ± 4%. Also, the “Effect on vasoconstriction (%)” value in [8] came to 68%. Also, in data set [7], the “Relaxing effect … (n = 4) (relaxation %)” value was determined as 42 ± 6%.

As to `CC(C)(C)NC[C@H](O)COc1nsnc1N1CCOCC1` [Timolol, reference compound], the “Average arterial pressure (mm Hg)” value in [1] (setting [15]) was 144 ± 5 mm Hg. For the same compound, the “Bronchoconstrictive effect (%)” value in data set [5] (setting [14]) was 188%. In data set [9], the “Inotropic positive effect % (n = 5)” value was 32%.

On to Amiloride Nitrate Salt [Amiloride.HNO3], for which, in data set [1] (Table IX, L-NAME rats, model of Example 11), the “Average arterial pressure (mm Hg)” value was 110 ± 5 mm Hg. For the same compound, the “Diuretic effect % (n = 5)” value in data set [10] turned out to be 215%.

Losartan nitrate [Losartan.HNO3]: in data set [1] (setting [11]), the “Average arterial pressure (mm Hg)” value is recorded as 115 ± 4 mm Hg. Moreover, the “Effect on the contraction of the smooth musculature % (n = 5)” value in data set [2] came out at 12%.

Minoxidil nitrate [Minoxidil.HNO3]: the “Average arterial pressure (mm Hg)” value in data set [1] (setting [12]) was determined as 110 ± 6 mm Hg. Further, the “Effect on the vasoconstriction % (n = 5)” value in data set [3] was 5%.

As for “Nicardipine Nitrate Salt [Nicardipine.HNO3]”, the “Average arterial pressure (mm Hg)” value in [1] (setting [13]) came out at 108 ± 3 mm Hg. Also, in data set [4], the “Contracturing effect % (n = 5)” value came out at 8%.

Regarding “Propranolol nitrate salt [Propranolol.HNO3]”, the “Bronchoconstrictive effect (%)” value in data set [5] (setting [14]) was 110%.

As for “Sildenafil Nitrate Salt [Sildenafil.HNO3]”, the “Relaxing effect … (n = 5) (relaxation %)” value in data set [6] was determined as 61 ± 3%. The “Effect on vasoconstriction (%)” value in [8] was determined as 25%. The “Relaxing effect … (n = 4) (relaxation %)” value in data set [7] is listed as 68 ± 7%.

In the case of Timolol nitrate salt [Timolol.HNO3], in data set [1] (setting [15]), the “Average arterial pressure (mm Hg)” value was 108 ± 8 mm Hg. In addition, the “Bronchoconstrictive effect (%)” value in data set [5] (guinea pig, in vivo, 10 mg/kg) is recorded as 94%. Further, the “Inotropic positive effect % (n = 5)” value in data set [9] amounted to 13%.

Take Zaprinast Nitrate [Zaprinast.HNO3]: the “Gastric toxicity (% incidence)” value in the data set on gastric tissue was determined as 30 % incidence.
